Results: US8119844B2, “Alcohol production process” (LanzaTech New Zealand Limited, priority 2008, dated 2012)
Like-named read-outs stand apart in the source and are kept apart here.

Assays:
Clostridium pasteurianum [1] = assay: Comparison of fermentation of commercial glycerol and glycerol from biodiesel waste for butanol production; type: cell-based; details: 30 g/l commercial glycerol, 2 g/l acetate, after 36 hours of fermentation
Protocol: Thirty grams biodiesel waste was dissolved in water up to 100 ml and stirred until the solution was homogenous. While stirring, 10% Hydrochloric acid solution was added until pH was below 3.0, so total coagulation of free fatty acid would occur. In order to improve the phase separation, the sample was centrifuged for 1 minute at 4,000 g. At this stage 3 phases could be seen: the top layer appeared oily and contained mostly FAME (Fatty acid methyl ester); the middle phase contained mostly coagulated free fatty acids; and, the bottom phase (aqueous phase) was clear and contained mostly water, glycerol and methanol. The aqueous phase was withdrawn carefully, filtered on a 0.2 μm filter and pH was then raised to pH 7.0 by addition of Sodium hydroxide. At this stage, methanol was evaporated by heating the solution under stirring and vacuum maintained with a water-jet. Finally water can be added in order to dilute the glycerol solution.
The aim of this experiment was to test the glycerol obtained from biodiesel waste, in a fermentation with Clostridium pasteurianum to produce butanol, in the presence of 2 g/l acetate initial concentration. The conversion of commercial glycerol (first row) was compared with glycerol obtained from biodiesel waste containing methanol (second row) or where methanol was evaporated (last row). […] Levels of butanol and biomass were the highest for bacteria growing on glycerol obtained from biodiesel, where methanol was evaporated. Acetate (50%) was also consumed.

Clostridium pasteurianum [2] = assay: Effect of methanol on the fermentation of glycerol to butanol (serum bottle); type: cell-based; details: for Acetate Consumption / Final Butanol / Final Butyrate / Glycerol Consumption: 30 g/l glycerol, 2 g/l acetate, after 36 hours of fermentation
Text: In this experiment, the effect of methanol on the conversion of commercial glycerol to butanol was studied. […] In addition, acetate and glycerol consumption decreased.

Clostridium pasteurianum [3] = details: for Acetate Consumption / Acetate Consumption (percent of starting acetate) / Final Acetate / Final Butanol / Final Butyrate / Glycerol Consumption: 30 g/l glycerol, after 3 days of fermentation
Protocol: LM31 media at pH 7.4 was prepared as follows. All ingredients with the exception of Cysteine-HCl were mixed in 400 ml distilled water. This solution was made anaerobic by heating to boiling and allowing it to cool to room temperature under a constant flow of N2 gas. Once cool, the Cysteine-HCl was added and the pH of the solution adjusted to 7.4 before making the volume up to 1000 ml; anaerobicity was maintained throughout the experiments.
Bacteria: Clostridium pasteurianum were obtained from the German Resource Centre for Biological Material (DSMZ). The accession number given to the bacteria is DSMZ 525.
Incubation was performed in 234 ml sealed serum bottles each containing 50 ml of the media LM31. The 184 ml headspace of each serum bottle was first flushed three times with N2 gas, before being evacuated and filed to an overpressure of 5 psig. Each bottle was inoculated with 1 ml of a Clostridium pasteurianum culture. A shaking incubator was used and the reaction temperature was maintained at 37° C.
Media samples were taken at intervals over a 3 day period. Each time the media was sampled care was taken to ensure that no gas was allowed to enter into or escape from the serum bottle.
All samples were used to establish the absorbancy at 600 nm (spectrophotometer) and the level of substrates and products (GC or HPLC). HPLC was routinely used to quantify the level of glycerol, methanol, acetate, and ethanol. When n-butyric acid and butanol were present, GC was used in combination with HPLC to quantify the levels of all substrates and products (glycerol, acids and alcohols).
The aim was to test the effect of initial acetate concentration on glycerol fermentation by Clostridium pasteurianum to produce butanol.

OCC(O)CO [commercial glycerol, glycerol]
Acetate Consumption (Clostridium pasteurianum [1]): 1.0 g/L | Acetate Consumption (percent) (Clostridium pasteurianum [1]): 50% | Final Butanol (Clostridium pasteurianum [1]): 2.9 g/L | Final Butyrate (Clostridium pasteurianum [1]): 0.7 g/L | Glycerol Consumption (Clostridium pasteurianum [1]): 15 g/L

CO [Methanol]
Acetate Consumption (Clostridium pasteurianum [2]; starting methanol 5.6 g/l): 0.8 g/L | Final Butanol (Clostridium pasteurianum [2]; starting methanol 5.6 g/l): 2.4 g/L | Final Butyrate (Clostridium pasteurianum [2]; starting methanol 5.6 g/l): 0.8 g/L | Glycerol Consumption (Clostridium pasteurianum [2]; starting methanol 5.6 g/l): 14 g/L | Acetate Consumption (Clostridium pasteurianum [2]; starting methanol 11.2 g/l): 0.8 g/L | Final Butanol (Clostridium pasteurianum [2]; starting methanol 11.2 g/l): 2.0 g/L | Final Butyrate (Clostridium pasteurianum [2]; starting methanol 11.2 g/l): 0.6 g/L | Glycerol Consumption (Clostridium pasteurianum [2]; starting methanol 11.2 g/l): 13 g/L | Acetate Consumption (Clostridium pasteurianum [2]; starting methanol 16.3 g/l): 0.6 g/L | Final Butanol (Clostridium pasteurianum [2]; starting methanol 16.3 g/l): 1.1 g/L | Final Butyrate (Clostridium pasteurianum [2]; starting methanol 16.3 g/l): 0.6 g/L | Glycerol Consumption (Clostridium pasteurianum [2]; starting methanol 16.3 g/l): 11 g/L | effect on the bacteria and butanol production (Clostridium pasteurianum [2]; increasing amounts of methanol, commercial glycerol): increasing inhibitory effect

CC(=O)O [Acetate, Acetic acid, glacial, 99.8%]
Acetate Consumption (Clostridium pasteurianum [3]; starting acetate 1.4 g/l): 0.4 g/L | Acetate Consumption (percent of starting acetate) (Clostridium pasteurianum [3]; starting acetate 1.4 g/l): 28% | Final Acetate (Clostridium pasteurianum [3]; starting acetate 1.4 g/l): 1.0 g/L | Final Butanol (Clostridium pasteurianum [3]; starting acetate 1.4 g/l): 3.0 g/L | Final Butyrate (Clostridium pasteurianum [3]; starting acetate 1.4 g/l): 0.5 g/L | Glycerol Consumption (Clostridium pasteurianum [3]; starting acetate 1.4 g/l): 12 g/L | Acetate Consumption (Clostridium pasteurianum [3]; starting acetate 2.2 g/l): 1.0 g/L | Acetate Consumption (percent of starting acetate) (Clostridium pasteurianum [3]; starting acetate 2.2 g/l): 45% | Final Acetate (Clostridium pasteurianum [3]; starting acetate 2.2 g/l): 1.2 g/L | Final Butanol (Clostridium pasteurianum [3]; starting acetate 2.2 g/l): 3.5 g/L | Final Butyrate (Clostridium pasteurianum [3]; starting acetate 2.2 g/l): 0.7 g/L | Glycerol Consumption (Clostridium pasteurianum [3]; starting acetate 2.2 g/l): 13 g/L | Acetate Consumption (Clostridium pasteurianum [3]; starting acetate 3.5 g/l): 1.6 g/L | Acetate Consumption (percent of starting acetate) (Clostridium pasteurianum [3]; starting acetate 3.5 g/l): 45% | Final Acetate (Clostridium pasteurianum [3]; starting acetate 3.5 g/l): 1.9 g/L | Final Butanol (Clostridium pasteurianum [3]; starting acetate 3.5 g/l): 3.1 g/L | Final Butyrate (Clostridium pasteurianum [3]; starting acetate 3.5 g/l): 1.1 g/L | Glycerol Consumption (Clostridium pasteurianum [3]; starting acetate 3.5 g/l): 12 g/L | acetate consumed in the course of the reaction (Clostridium pasteurianum [3]; increasing amounts of acetate added at the start of the fermentation): up to 45%
